# Measurements published in patent publication US20160355483A1, “COMPOUND BINDING TO PPARG BUT NOT ACTING AS PROMOTER AND PHARMACEUTICAL COMPOSITION FOR TREATING PPARG-RELATED DISEASES CONTAINING SAME AS ACTIVE INGREDIENT” (Hyundai Pharm Co., Ltd., priority 2014, published 2016).
# Target: T1, PPARG (peroxisome proliferator activated receptor-gamma), GST-PPARG-LBD (Homo sapiens, UniProt P37231)
# T1 construct: 15 μL of 5 nM GST-PPARG-LBD and 5 nM Tb-GST-antibody were added; purchased Invitrogen PV4894
# T1 sequence (P37231 238-503 limits assumed): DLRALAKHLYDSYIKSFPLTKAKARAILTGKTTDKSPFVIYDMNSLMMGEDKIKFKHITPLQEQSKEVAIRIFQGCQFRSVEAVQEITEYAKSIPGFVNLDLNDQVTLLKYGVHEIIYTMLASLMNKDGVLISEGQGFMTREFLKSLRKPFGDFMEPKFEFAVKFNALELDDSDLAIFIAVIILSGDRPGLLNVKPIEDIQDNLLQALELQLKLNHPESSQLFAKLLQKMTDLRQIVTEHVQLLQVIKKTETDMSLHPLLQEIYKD
# Assay: LanthaScreen TR-FRET PPARG Competitive Binding Assay
# Parameters: key: “+” indicates the degree of the binding activity, and as the number of “+” increases, the binding activity is stronger; ++: “+” indicates the degree of the binding activity, and as the number of “+” increases, the binding activity is stronger; +++: “+” indicates the degree of the binding activity, and as the number of “+” increases, the binding activity is stronger; ++++: “+” indicates the degree of the binding activity, and as the number of “+” increases, the binding activity is stronger
# Settings: degree of binding activity
# Procedure: The following experiment was performed to evaluate the PPARG (peroxisome proliferator activated receptor-gamma) binding capacity and transcriptional activity of the compounds prepared in the examples of the invention. For the experiment, LanthaScreen™ TR-FRET PPARG Competitive Binding Assay Kit (PV4894, Invitrogen) was used according to the manufacturer's instruction. […] The mixture was loaded in a 384-well plate (Greiner, 784075) by 20 μL per well, followed by reaction at room temperature for 1 hour. Upon completion of the reaction, fluorescence value was measured by using Flexstation 3 (Molecular Devices) with time-resolved fluorescence (RFU) mode (excitation 1: 340 nm, emission 1: 518 nm, excitation 2: 340 nm, emission 2: 488 nm, integration delay 50 μs, integration 400 μs). The results were calculated by using 518 nm RFUs/488 nm RFUs ratio. The activity of the compounds of the invention was compared with that of the vehicle, which was calculated by ratio according to the formula [100%−compound of the example ratio/vehicle ratio]. At this time, the binding activity ratio to rosiglitazone was compared.
row,Structure (SMILES),Binding assay (1 μLM)
1,"C[C@H](NC(=O)c1ccc2c(c1)CCCN2Cc1cc(-c2ccccc2C(N)=O)ccc1F)c1ccccc1 [Example 135, (S)-1-((2′-carbamoyl-4-fluoro-[1,1′-biphenyl]-3-yl)methyl)-N-(1-phenylethyl)-1,2,3,4-tetrahydroquinoline-6-carboxamide]",+++
2,"C[C@H](NC(=O)c1ccc2c(c1)CCCN2Cc1ccccc1-c1ccc(C(N)=O)cc1)c1ccccc1 [Example 153, (S)-1-((4′-carbamoyl-[1,1′-biphenyl]-2-yl)methyl)-N-(1-phenylethyl)-1,2,3,4-tetrahydroquinolin-6-carboxamide]",++
3,"C[C@@H](NC(=O)c1ccc2c(c1)OCCN2Cc1ccc(-c2ccccc2C(=O)O)cc1)c1ccc(C#N)cc1 [Example 81, (R)-4′-((7-((1-(4-cyanophenyl)ethyl)carbamoyl)-2H-benzo[b][1,4]oxazine-4(3H)-yl)methyl)-[1,1′-biphenyl]-2-carboxylic acid]",+++
4,"C[C@H](NC(=O)c1ccc2c(c1)CCCN2Cc1ccc(-c2ccccc2C(N)=O)cc1)c1ccc(Br)cc1 [Example 37, (S)—N-(1-(4-bromophenyl)ethyl)-1-((2′-carbamoyl-[1,1′-biphenyl]-4-yl)methyl)-1,2,3,4-tetrahydroquinoline-6-carboxamide]",+++
5,"C[C@H](NC(=O)c1ccc2c(c1)CCCN2Cc1cccc(-c2ccccc2C(=O)O)c1F)c1ccc([N+](=O)[O-])cc1 [Example 128, (S)-2′-fluoro-3′-((6-((1-(4-nitrophenyl)ethyl)carbamoyl)-3,4-dihydroquinoline-1(2H)-yl)methyl)-[1,1′-biphenyl]-2-caboxylic acid]",++
6,"C[C@H](NC(=O)c1ccc2c(c1)CCCN2Cc1cccc(-c2ccccc2C(=O)O)c1F)c1ccc2ccccc2c1 [Example 129, (S)-2′-fluoro-3′-((6-((1-(naphthalene-2-yl)ethyl)carbamoyl)-3,4-dihydroquinoline-1(28)-yl)methyl)-[1,1′-biphenyl]-2-carboxylic acid]",++++
7,"C[C@H](NC(=O)c1ccc2c(c1)CCCN2Cc1ccc(-c2ccccc2C(=O)O)cc1)c1cccc(C(F)(F)F)c1 [Example 19, (S)-4′-((6-((1-(3-(trifluoromethyl)phenyl)ethyl)carbamoyl)-3,4-dihydroquinoline-1(2H)-yl)methyl)-[1,1′-biphenyl]-2-carboxylic acid]",+++
8,"O=C(NCc1ccccc1)c1ccc2c(c1)OCCN2Cc1ccc(-c2ccccc2C(=O)O)cc1 [Example 67, 4′-((7-(benzylcarbamoyl)-2H-benzo[b][1,4]oxazine-4(38)-yl)methyl)-[1,1′-biphenyl]-2-carboxylic acid]",++
9,"COc1ccccc1[C@H](C)NC(=O)c1ccc2c(c1)CCCN2Cc1ccc(-c2ccccc2C(=O)O)cc1 [Example 23, (S)-4′-((6-((1-(2-methoxyphenyl)ethyl)carbamoyl)-3,4-dihydroquinoline-1(2H)-yl)methyl)-[1,1′-biphenyl]-2-carboxylic acid]",+++
10,"C[C@H](NC(=O)c1ccc2c(c1)CCCN2Cc1ccc(-c2ccccc2C(N)=O)cc1)c1ccccc1C(F)(F)F [Example 43, (S)-1-((2′-carbamoyl-[1,1′-biphenyl]-4-yl)methyl)-N-(1-(2-(trifluoromethyl)phenyl)ethyl)-1,2,3,4-tetrahydroquinoline-6-carboxamide]",++
11,"C[C@H](NC(=O)c1ccc2c(c1)OCCN2Cc1ccc(-c2ccccc2C(=O)[O-])cc1)c1ccc([N+](=O)[O-])cc1.[Na+] [Example 105, sodium (S)-4′-((7-((1-(4-nitrophenyl)ethyl)carbamoyl)-2-benzo[b][1,4]oxazine-4(3H)-yl)methyl)-[1,1′-biphenyl]-2-carboxylate]",+
12,"C[C@H](NC(=O)c1ccc2c(c1)CCCN2Cc1ccc(-c2ccccc2C(N)=O)cc1F)c1ccccc1 [Example 107, (S)-1-((2′-carbamoyl-3-fluoro-[1,1′-biphenyl]-4-yl)methyl)-N-(1-phenylethyl)-1,2,3,4-tetrahydroquinoline-6-carboxamide]",+++
13,"Cc1ccc([C@H](C)NC(=O)c2ccc3c(c2)OCCN3Cc2ccc(-c3ccccc3C(=O)O)cc2)cc1F [Example 80, (S)-4′-((7-((1-(3-fluoro-4-methylphenyl)ethyl)carbamoyl)-2H-benzo[b][1,4]oxazine-4(3H)-yl)methyl)-[1,1′-biphenyl]-2-carboxylic acid]",++
14,"COC(=O)c1ccc(CNC(=O)c2ccc3c(c2)OCCN3Cc2ccc(-c3ccccc3C(=O)O)cc2)cc1 [Example 71, 4′-((7-((4-(methoxycarbonyl)benzyl)carbamoyl)-2H-benzo[b][1,4]oxazine-4(3H)-yl)methyl)-[1,1′-biphenyl]-2-carboxylic acid]",+
15,"C[C@H](NC(=O)c1ccc2c(c1)OCCN2Cc1ccc(-c2ccccc2C(=O)O)cc1)c1cccc(Cl)c1 [Example 65, (S)-4′-((7-((1-(3-chlorophenyl)ethyl)carbamoyl)-2H-benzo[b][1,4]oxazine-4(3H)-yl)methyl)-[1,1′-biphenyl]-2-carboxylic acid]",++
16,"C[C@H](NC(=O)c1ccc2c(c1)CCCN2Cc1ccc(-c2ccccc2C(=O)O)cc1)c1ccccc1 [Example 1, (S)-4′-((6-((1-phenylethyl)carbamoyl)-3,4-dihydroquinoline-1(2H)-yl)methyl)-[1,1′-biphenyl]-2-carboxylic acid]",+++
17,"C[C@H](NC(=O)c1ccc2c(c1)CCCN2Cc1ccccc1-c1ccc(C(N)=O)cc1)c1ccc2ccccc2c1 [Example 160, (S)-1-((4′-carbamoyl-[1,1′-biphenyl]-2-yl)methyl)-N-(1-(naphthalene-2-yl)ethyl)-1,2,3,4-tetrahydroquinoline-6-carboxamide]",++
18,"NC(=O)c1ccccc1-c1ccc(CN2CCCc3cc(C(=O)NCc4ccccc4)ccc32)cc1 [Example 50, N-benzyl-1-((2′-carbamoyl-[1,1′-biphenyl]-4-yl)methyl)-1,2,3,4-tetrahydroquinoline-6-carboxamide]",+++
19,"C[C@H](NC(=O)c1ccc2c(c1)CCCN2Cc1ccc(-c2ccccc2C(N)=O)cc1)c1ccc(C(F)(F)F)cc1 [Example 33, (S)-1-((2′-carbamoyl-[1,1′-biphenyl]-4-yl)methyl)-N-(1-(4-(trifluoromethyl)phenyl)ethyl)-1,2,3,4-tetrahydroquinoline-6-carboxamide]",+++
20,"O=C(NCCc1ccccc1)c1ccc2c(c1)OCCN2Cc1ccc(-c2ccccc2C(=O)O)cc1 [Example 68, 4′-((7-(phenethylcarbamoyl)-2H-benzo[b][1,4]oxazine-4(3H)-yl)methyl)-[1,1′-biphenyl]-2-carboxylic acid]",++
21,"C[C@H](NC(=O)c1ccc2c(c1)CCCN2Cc1cccc(-c2ccccc2C(N)=O)c1)c1ccc(C#N)cc1 [Example 122, (S)-1-((2′-carbamoyl-[1,1′-biphenyl]-3-yl)methyl)-N-(1-(4-cyanophenyl)ethyl)-1,2,3,4-tetrahydroquinoline-6-carboxamide]",++
22,"C[C@H](NC(=O)c1ccc2c(c1)OCCN2Cc1ccc(-c2ccccc2C(=O)O)c(F)c1)c1ccc2ccccc2c1 [Example 163, (S)-2′-fluoro-4′-((7-((1-(naphthalene-2-yl)ethyl)carbamoyl)-2H-benzo[b][1,4]oxazine-4(3H)-yl)methyl)-[1,1′-biphenyl]-2-carboxylic acid]",+++
23,"C[C@H](NC(=O)c1ccc2c(c1)CCCN2Cc1ccc(-c2ccccc2C(=O)O)cc1F)c1ccc([N+](=O)[O-])cc1 [Example 109, (S)-3′-fluoro-4′-((6-((1-(4-nitrophenyl)ethyl)carbamoyl)-3,4-dihydroquinoline-1(2H)-yl)methyl)-[1,1′-biphenyl]-2-caboxylic acid]",+++
24,"Cc1ccc([C@H](C)NC(=O)c2ccc3c(c2)OCCN3Cc2ccc(-c3ccccc3C(=O)O)c(F)c2)cc1F [Example 164, (S)-2′-fluoro-4′-((7-(((3-fluoro-4-methylphenyl)ethyl)carbamoyl)-2H-benzo[b][1,4]oxazine-4(3)-yl)methyl)-[1,1′-biphenyl]-2-carboxylic acid]",+++
25,"C[C@H](NC(=O)c1ccc2c(c1)OCCN2Cc1ccc(-c2ccccc2C(=O)O)cc1)c1ccc(C(C)(C)C)cc1 [Example 78, (S)-4′-((7-((1-(4-(tert-butyl)phenyl)ethyl)carbamoyl)-2H-benzo[b][1,4]oxazine-4(3H)-yl)methyl)-[1,1′-biphenyl]-2-carboxylic acid]",++
